This note sets out measurements from US20230285340A1, “NEPRILYSIN INHIBITORS” (THERAVANCE BIOPHARMA R&D IP, LLC, priority 2011, published 2023).

A value given as a limit tells only on which side of the number the result lay.

In the test the target is human NEP (Homo sapiens (Human), UniProt P08473). Nature of the test: In vitro enzyme inhibition assay at human NEP (Assay 1). It is filed as biochemical.

The pKi is the Ki on a negative log10 scale, so that one unit is a factor of ten. Lower therefore signals a large Ki. For the setting “comparative examples, exact values”, `C[C@H](C[C@@H](Cc1ccc(-c2ccccc2)cc1)NC(=O)C(=O)O)C(=O)O` [Comparative Compound A, (2R,4S)-5-Biphenyl-4-yl-2-methyl-4-(oxalyl-amino)-pentanoic Acid, reference compound] came in with a pKi of 8.2.
For the setting “reported as ranges”, `Cc1ccc(Cl)cc1-c1ccc(C[C@H](C[C@@H](O)C(=O)O)NC(=O)C(=O)O)cc1` [Example 5-1, (2R,4R)-5-(5′-Chloro-2′-methylbiphenyl-4-yl)-2-hydroxy-4-(oxalylamino)-pentanoic acid] displayed a pKi of at least 9.
The compound `O=C(O)C(=O)N[C@H](Cc1ccc(-c2cc(Cl)ccc2F)cc1)C[C@@H](O)C(=O)O` [Example 5-5, (2R,4R)-5-(5′-Chloro-2′-fluorobiphenyl-4-yl)-2-hydroxy-4-(oxalylamino)pentanoic acid] showed a negative-log Ki (pKi) (reported as ranges) of at least 9.
`O=C(O)C(=O)N[C@H](Cc1ccc(-c2cccc(Cl)c2)cc1Cl)C[C@@H](O)C(=O)O` [Example 5-9, (2R,4R)-5-(3,3′-Dichlorobiphenyl-4-yl)-2-hydroxy-4-(oxalylamino)pentanoic acid]: the pKi (reported as ranges) is at least 9.
The same measure, in the same setting: the same measure for `O=C(O)C(=O)NN(Cc1ccc(-c2cc(Cl)ccc2F)cc1Cl)C[C@@H](O)C(=O)O` [Example 5-13, (R)-3-[N-(3,5′-Dichloro-2′-fluorobiphenyl-4-ylmethyl)-N′-oxalyl-hydrazino]-2-hydroxypropionic acid]: at least 9; for `CCOC(=O)C(=O)N[C@H](Cc1ccc(-c2cc(Cl)ccc2F)cc1)C[C@@H](O)C(=O)O` [Example 5-14, (2R,4R)-5-(5′-Chloro-2′-fluorobiphenyl-4-yl)-4-(ethoxyoxalylamino)-2-hydroxy-pentanoic acid]: at least 9.
On the same count and under the same terms, the same measure for `CC(C)OC(=O)C(=O)N[C@H](Cc1ccc(-c2cc(Cl)ccc2F)cc1)C[C@@H](O)C(=O)O` [Example 5-15, (2R,4R)-5-(5′-Chloro-2′-fluorobiphenyl-4-yl)-2-hydroxy-4-(isopropoxyoxalyl-amino)-pentanoic acid]: at least 9; for `CCOC(=O)[C@H](O)C[C@@H](Cc1ccc(-c2cccc(Cl)c2)cc1Cl)NC(=O)C(=O)O` [Example 5-17, (2R,4R)-5-(3,3′-Dichlorobiphenyl-4-yl)-2-hydroxy-4-(oxalylamino)pentanoic acid ethyl ester]: at least 9; for `C[C@@](CO)(C[C@@H](Cc1ccc(-c2ccccc2F)cc1)NC(=O)C(=O)O)C(=O)O` [Example 11-1, (2S,4R)-5-(2′-Fluorobiphenyl-4-yl)-2-hydroxymethyl-2-methyl-4-(oxalylamino)pentanoic acid]: 8.0-8.9.
On the same count and under the same terms, the figure for `C[C@@](CO)(C[C@@H](Cc1ccc(-c2cc(Cl)ccc2F)cc1)NC(=O)C(=O)O)C(=O)O` [Example 11-2, (2S,4R)-5-(5′-Chloro-2′-fluorobiphenyl-4-yl)-2-hydroxymethyl-2-methyl-4-(oxalyl-amino)pentanoic acid] is at least 9; for `C[C@@](CO)(C[C@@H](Cc1ccc(-c2ccc(F)cc2)cc1)NC(=O)C(=O)O)C(=O)O` [Example 11-3, (2S,4R)-5-(4′-Fluorobiphenyl-4-yl)-2-hydroxymethyl-2-methyl-4-(oxalylamino)pentanoic acid] it is 7.0-7.9; for `CC(C)COC(=O)C(=O)N[C@H](Cc1ccc(-c2cccc(Cl)c2)cc1)C[C@@](C)(CO)C(=O)O` [Example 11-4, (2S,4R)-5-(3′-Chlorobiphenyl-4-yl)-2-hydroxymethyl-4-(isobutoxyoxalyl-amino)-2-methylpentanoic acid] it is 8.0-8.9.
